Converted amounts (≈) assume the structure as drawn.
How the values were obtained:
SARS-CoV-2 [1] = assay: Antiviral activity against SARS-CoV-2 infected in African green monkey Vero E6 cells assessed as inhibition of viral growth incubated for 24 hrs by qRT-PCR analysis; assay type: functional, organism-based; conditions: Severe acute respiratory syndrome coronavirus 2, Vero C1008, 24 h
[2] = target: Replicase polyprotein 1ab (Severe acute respiratory syndrome coronavirus 2, UniProt P0DTD1)
Description: Inhibition of SARS CoV-2 main protease

SARS-CoV-2 [3] = assay: Antiviral activity against SARS-CoV-2 infected in monkey Vero E6 cells assessed as inhibition of […]; assay type: functional, organism-based; conditions: Severe acute respiratory syndrome coronavirus 2, Vero C1008
SARS-CoV-2 [4] = assay: Antiviral activity against SARS-CoV-2 infected in African green monkey Vero E6 cells assessed as reduction in viral replication measured after 3 days by qRT-PCR analysis; assay type: functional, organism-based; conditions: Severe acute respiratory syndrome coronavirus 2, Vero C1008, 72 h
SARS-CoV-2 [5] = assay: Antiviral activity against SARS-CoV-2 infected in african green monkey Vero E6 cells assessed as reduction in viral growth measured for 2 days by qRT-PCR; assay type: functional, organism-based; conditions: Severe acute respiratory syndrome coronavirus 2, Vero C1008, 48 h
SARS-CoV-2 [6] = assay: Antiviral activity against SARS-CoV-2 infected in human Calu-3 cells assessed as reduction in viral replication incubated for 48 hrs by RT-PCR; assay type: functional, organism-based; conditions: Severe acute respiratory syndrome coronavirus 2, Calu-3, 48 h
SARS-CoV-2 [7] = assay: Antiviral activity against SARS-CoV-2 infected in human A549-ACE2 cells assessed as viral growth inhibition; assay type: functional, organism-based; conditions: Severe acute respiratory syndrome coronavirus 2, A549-ACE2
SARS-CoV-2 [8] = assay: Antiviral activity against SARS-CoV-2 infected in african green monkey Vero E6 cells assessed as reduction in viral replication; assay type: functional, organism-based; conditions: Severe acute respiratory syndrome coronavirus 2, Vero C1008

Work on `C[C@@H]1CC[C@H]2[C@@H](C)C(=O)O[C@@H]3O[C@@]4(C)CC[C@@H]1[C@]32OO4` [ARTEMISININ] yielded an EC50 (SARS-CoV-2 [1]) of 10.3 µM.

`COc1ccc2cc1Oc1ccc(cc1)C[C@H]1c3c(cc4c(c3Oc3cc5c(cc3OC)CCN(C)[C@@H]5C2)OCO4)CCN1C` [CEPHARANTHINE] showed an IC50 [2] of 0.1 µM.

For `O=c1c(O)c(-c2cc(O)c(O)c(O)c2)oc2cc(O)cc(O)c12` [MYRICETIN], the EC50 (SARS-CoV-2 [3]) was 8 µM.

Compound `O=C(O[C@@H]1Cc2c(O)cc(O)cc2O[C@@H]1c1cc(O)c(O)c(O)c1)c1cc(O)c(O)c(O)c1` [EPIGALOCATECHIN GALLATE] has an EC50 (SARS-CoV-2 [4]) of 10 µM.

In the case of `COc1cc(/C=C/C(=O)CC(=O)/C=C/c2ccc(O)c(OC)c2)ccc1O` [CURCUMIN], the EC50 (SARS-CoV-2 [5]) is reported as 38 µM and the EC50 (SARS-CoV-2 [6]) is reported as 38 µM.

For `CC1(C)[C@@H](O[C@H]2O[C@H](C(=O)O)[C@@H](O)[C@H](O)[C@H]2O[C@@H]2O[C@H](C(=O)O)[C@@H](O)[C@H](O)[C@H]2O)CC[C@]2(C)[C@H]3C(=O)C=C4[C@@H]5C[C@@](C)(C(=O)O)CC[C@]5(C)CC[C@@]4(C)[C@]3(C)CC[C@@H]12` [GLYCYRRHIZIN], the EC50 (SARS-CoV-2 [7]) was 0.44 µg/mL (≈ 0.535 µM).

In the case of `Cc1ccc(C(=O)Nc2ccc(S(=O)(=O)O)c3cc(S(=O)(=O)O)cc(S(=O)(=O)O)c23)cc1NC(=O)c1cccc(NC(=O)Nc2cccc(C(=O)Nc3cc(C(=O)Nc4ccc(S(=O)(=O)O)c5cc(S(=O)(=O)O)cc(S(=O)(=O)O)c45)ccc3C)c2)c1` [SURAMIN], the EC50 (SARS-CoV-2 [8]) is reported as 2.93 µM.

`O=C(O[C@@H]1O[C@@H]2COC(=O)c3cc(O)c(O)c(O)c3-c3c(cc(O)c(O)c3O)C(=O)O[C@H]([C@H]1O)[C@@H]2O)c1cc(O)c(O)c(O)c1` [CORILAGIN] was tested, and the EC50 (SARS-CoV-2 [8]) was 0.13 µM.
